Data taken from patent publication US20050113427A1, “Use of peroxynirite scavengers or peroxynitrite formation inhibitors that do not diminish nitric oxide synthesis or activity to reverse or prevent premature vascular senescence” (ArgiNOx, Inc., priority 2001, published 2005).

Key:
[1] = tested on: Human umbilical vein endothelial cells (HUVEC); experiment: SA β-galactosidase staining of HUVEC grown on glycated collagen (premature senescence); format: cell-based; conditions: for reversal of premature senescence in HUVECs on GC (SA β-galactosidase staining, FIG. 1): HUVECs on GC 3 days, then compound every 12 hours until staining on day 5, GC dilutions 1:3, 1:6, 1:10 in native collagen; for development of premature senescence (SA β-galactosidase staining) in HUVECs grown on GC: ebselen 1 μmol/L, NOHA 0.1 mmol/L, MnTBAP 2.5 μmol/L, applied day 1, 2 hours after plating, added daily, studied day 3
Protocol: Detection of SA-β-galactosidase was carried out utilizing the histochemical staining method of Dimitri et al, Proc. Natl. Acad. Sci. USA 92, 9363-9367 as modified by Van der Loo, B., et al, Exp. Cell Res. 241, 309-315 (1998). SA β-galactosidase is a known senescence marker. […] This phenomenon occurred in 12 week and 21 week-old diabetic rats, but was undetectable in age-matched Zucker lean rats (0/24 branches examined).
Human umbilical vein endothelial cells (HUVEC) after four passages were plated on glycated collagen with or without the addition of 0.1 mM ebselen. Application was made on day 1, 2 hours after plating. The extent of SA β-galactosidase staining was evaluated on days 3 and 5 of culture on a glycated or native collagen matrix. In addition, to study the reversibility process, HUVEC were plated on glycated collagen for three days (time sufficient to induce premature senescence), and ebselen was added every 12 hours, starting on day 3, and the cells were examined on day 5.
These concentrations of compounds were chosen based on preliminary experiments testing effects of a range of concentrations for each compound and selecting the lowest one which was efficient but non-cytotoxic. Ebselen, NOHA, and MnTBAP were each applied on day 1, 2 hours after HUVEC plating, added daily, and cells were studied on day 3. HUVECs grown on both glycated and native matrix were examined for the extent of SA β-galactosidase staining. […] In addition, to test for reversibility of senescence by ebselen, NOHA, or MnTBAP, HUVECs were plated on GC for 3 days (time sufficient to induce premature senescence) and thereafter ebselen (ebs), NOHA, or MnTBAP were added every 12 hours, until SA β-galactosidase staining on day 5. […] Dashed lines show the data obtained in HUVECs cultured on native collagen (NC).

[2] = tested on: end stage renal disease; experiment: Patient with end stage renal disease on chronic hemodialysis treated with ebselen (Example I); format: in vivo, human; conditions: ebselen 1-20 mg/kg thrice/day, 6 months later
Text: (In some cases, renal biopsy will be performed, which will directly disclose the deposition of AGE in the renal parenchyma and increased proportion of SA-beta-galactosidase-stained endothelial cells). […] In addition, the patient has their arteriovenous fistula revised 3 times due to clotting and stenosis. The patient is also complaining of a non-healing foot ulcer and intermittent claudication, both signs of peripheral vascular disease. […] Similar results are obtained in similar patients who are administered other ebselen-class compounds.

[3] = tested on: diabetes mellitus; experiment: Patient with poorly controlled diabetes mellitus treated with ebselen (Example II); format: in vivo, human; conditions: ebselen 1-20 mg/kg thrice/day, 6 months later
Protocol: A patient with type I (alternatively, a patient with type 2) diabetes mellitus, past medical history of myocardial infarction, peripheral vascular disease, hypertension, proteinuria and non-healing foot ulcer, is receiving insulin, but experiences poor therapeutic response. Patient's fasting blood glucose level is 200 mg/dl. Additional laboratory findings include elevated Hgb Alc level (8.5%) as well as one of the following signs of AGE accumulation: elevated level of pentosidine (2.3 pmol/mg) or elevated level of Amadori serum albumin (41 U/ml). (In some cases, renal biopsy will be performed, which will directly disclose the deposition of AGE in the renal parenchyma and increased proportion of SA-beta-galactosidase-stained endothelial cells). […] Similar results are obtained in similar patients who are administered other ebselen-class compounds.

[4] = tested on: Alzheimer's disease; experiment: Patient with Alzheimer's disease treated with ebselen or ebselen-class compounds (Example III); format: in vivo, human; conditions: 1-20 mg/kg thrice/day alone or with antioxidant agents and vitamins; two years later
Protocol: A person with no known medical conditions has been experiencing a sustained loss of short-term memory for the past three years. Their CBC, electrolytes and other plasma metabolites are within normal range. There is no vitamin deficiency, no abnormalities in liver function tests, and no previous history of cerebro-vascular accidents. […] Based on these findings the patient is diagnosed with Alzheimer's disease. Therapy with ebselen or other ebselen-class compounds is initiated at doses of 1-20 mg/kg thrice/day alone or in combination with antioxidant agents and vitamins (e.g., ascorbate, alpha-tocopherol, vitamin B6, vitamin B12, folate (folic acid), carotenoids, coenzyme Q10, phytoestrogens (including isoflavonoids), butylated hydroxytoluene (BHT), butylated hydroxyanisole (BHA) and n-3 polyunsaturated fatty acids (PUFA)).

[5] = tested on: endothelial cells from saphenous vein; experiment: Artificial heart valve seeded with endothelial cells cultured with ebselen, implanted in patient (Example V); format: in vivo, human; conditions: cells cultured with 10-100 μg/ml at 35° C. for 2-3 weeks; versus patients not receiving ebselen
Protocol: A person with a defective heart valve is being prepared for a surgical replacement of the valve with a prosthetic device. A saphenous vein is obtained to harvest endothelial cells for expansion and seeding onto the surface of a artificial valve. Endothelial cells are isolated from the graft and cultured in a medium containing ebselen or ebselen-class compound at a concentration of 10-100 μg/ml at 35° C. for 2-3 weeks and cells are seeded onto the valve in the continuous presence of the same concentration of ebselen or ebselen-class compound. Thus prepared, the artificial valve is implanted.

[6] = tested on: endothelial cells from saphenous vein; experiment: Artificial vascular graft seeded with endothelial cells cultured with ebselen, implanted in patient (Example VI); format: in vivo, human; conditions: cells cultured with 10-100 μg/ml at 35° C. for 2-3 weeks; versus patients not receiving ebselen
Protocol: A person with peripheral vascular disease is undergoing an elective femoral-to-popliteal bypass surgery utilizing an artificial vascular graft. A saphenous vein is obtained to harvest endothelial cells for expansion and seed onto the surface of a graft. Endothelial cells are isolated from the graft and cultured in a medium containing ebselen or ebselen-class compound at a concentration of 10-100 μg/ml at 35° C. for 2-3 weeks, and cells are seeded onto the graft in the continuous presence of the same concentration of ebselen or ebselen-class compound. Thus prepared, the vascular graft is implanted.

N=C(N)NCCC[C@H](N)C(=O)O [L-arginine]
reversal of premature senescence in HUVECs on GC (SA β-galactosidase staining, FIG. 1) [1]: reversed senescence at low but not high concentrations of GC

O=c1c2ccccc2[se]n1-c1ccccc1 [ebselen, 2-phenyl-1,2-benzisoselenazol-3(2H)-one]
development of premature senescence (SA β-galactosidase staining) in HUVEC grown on glycated collagen ([1]; 0.1 mM ebselen applied day 1, 2 hours after plating, evaluated on days 3 and 5): completely abolished the development of premature senescence | reversal of premature senescence in HUVEC on glycated collagen ([1]; HUVEC on glycated collagen 3 days, ebselen added every 12 hours from day 3, examined day 5): able to reverse premature senescence at all dilutions of glycated collagen | reversal of premature senescence in HUVECs on GC (SA β-galactosidase staining, FIG. 1) [1]: able to reverse premature senescence at all dilutions of GC | development of premature senescence (SA β-galactosidase staining) in HUVECs grown on GC [1]: completely abolished the development of premature senescence | clinical outcome [2]: significant subjective improvement of coronary symptoms, renal disease, healing of foot ulcer, normalization of blood pressure | pentosidine after treatment [2]: 1.7 pmol/mg | Amodori serum albumin after treatment ([2]; before 40 U/ml): 30 U/ml | clinical outcome [3]: significant subjective improvement of coronary symptoms | pentosidine after treatment ([3]; before 2.3 pmol/mg): ≤ 1.7 pmol/mg | Amadori serum albumin after treatment ([3]; before 41 U/ml): ≤ 30 U/ml | symptoms related to the memory loss [4]: no deterioration and a partial improvement of symptoms related to the memory loss | thrombotic and atheroembolic complications after artificial valve implantation [5]: less thrombotic and atheroembolic complications | thrombotic and atheroembolic complications after vascular graft implantation [6]: less thrombotic and atheroembolic complications

N=C(NO)NCCC[C@H](N)C(=O)O [NOHA, N^ω-hydroxyl-L-arginine]
reversal of premature senescence in HUVECs on GC (SA β-galactosidase staining, FIG. 1) [1]: able to reverse premature senescence at all dilutions of GC | development of premature senescence (SA β-galactosidase staining) in HUVECs grown on GC [1]: completely abolished the development of premature senescence

O=C(O)c1ccc(/C2=C3\C=CC(=N3)/C(c3ccc(C(=O)O)cc3)=c3/cc/c4[n]3[Mn]([Cl])[n]3c2ccc3/C(c2ccc(C(=O)O)cc2)=C2/C=CC(=N2)\C=4c2ccc(C(=O)O)cc2)cc1 [MnTBAP, [5,10,15,20-tetrakis(4-carboxyphenyl)-porphyrinato]manganese (III) chloride]
reversal of premature senescence in HUVECs on GC (SA β-galactosidase staining, FIG. 1) [1]: able to reverse premature senescence at all dilutions of GC | development of premature senescence (SA β-galactosidase staining) in HUVECs grown on GC [1]: completely abolished the development of premature senescence
